Experimental data taken from patent publication US8653075B2, “Therapeutic methods employing substituted piperidines which are CCR3 antagonists” (Boehringer Ingelheim International GmbH, priority 2009, dated 2014).

Biological target: T1, human chemokine receptor CCR3 (Homo sapiens, UniProt P51677)
T1 construct: expressed in transfected cells; host or cells: K562 cell line (hCCR3-C1 cells), membrane preparation
T1 sequence (P51677 1-355): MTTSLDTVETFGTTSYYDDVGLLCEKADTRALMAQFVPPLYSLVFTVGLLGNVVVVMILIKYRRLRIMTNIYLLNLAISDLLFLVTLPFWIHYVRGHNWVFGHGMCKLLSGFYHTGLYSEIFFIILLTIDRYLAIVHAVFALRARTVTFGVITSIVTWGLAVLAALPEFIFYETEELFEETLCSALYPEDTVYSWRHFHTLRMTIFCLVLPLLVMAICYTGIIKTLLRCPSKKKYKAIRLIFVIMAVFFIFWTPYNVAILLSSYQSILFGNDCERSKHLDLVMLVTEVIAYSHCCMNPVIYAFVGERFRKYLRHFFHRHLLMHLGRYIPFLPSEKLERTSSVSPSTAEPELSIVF
Test: CCR3 receptor binding assay (SPA, 125I-eotaxin-1 displacement, hCCR3-C1 K562 cell membranes)
Settings: human Eotaxin-1 at human CCR3-Rezeptor; for inhibition at 1 µM: 1 μM test compound, read-out: CCR3 % inh @ 1 μM; for Ki: dose range 0.1 to 10000 nM
Description: The CCR3 receptor binding test is based on a K562 cell line (leukemia myelogenic blast cells) transfected with the human chemokine receptor CCR3 (hCCR3-C1 cells). The cell membranes were prepared by disrupting the hCCR3-C1 cells by […]. The preparation was centrifuged at 400 g 4° C. for 30 min. The supernatant was transferred into fresh tubes followed by a second centrifugation at 48000 g, 4° C. for 1 h. The membranes were re-suspended in the SPA incubation buffer (25 mM HEPES, 25 mM MgCl2 6×H2O, 1 mM CaCl2 2×H2O) without bovine serum albumin and homogenized by passing through a single use needle (Terumo, 23Gx1″). The membranes were stored in aliquots at −80° C.
The CCR3 receptor binding assay was performed in a Scintillation Proximity Assay (SPA) design with the radioligand recombinant human ^125Iodine-eotaxin-1. Cell membranes of hCCR3 C1 cells were again homogenized by passing through a single use needle (Terumo, 23Gx1″) and diluted in SPA incubation buffer in suitable concentrations (0.5-10 μg protein/well) in 96 well microtiter plates (1450-514, Perkin Elmer). The SPA assay was set up in the SPA incubation buffer with a final volume of 200 μl and final concentration of 25 mM HEPES, 25 mM MgCl2 6×H2O, 1 mM CaCl2 2×H2O and 0.1% bovine serum albumin. The SPA assay mixture contained 60 μl of the membrane suspension, 80 μl of Wheat Germ Agglutinin coated PVT beads (organic scintillator, GE Healthcare, RPNQ-0001) 0.2 mg/well), 40 μl of recombinant human ^125Jodine-eotaxin-1 (Biotrend), diluted in SPA buffer to a final concentration of 30.000 dpm per well, and 20 μl of the test compound (dissolved in DMSO dilutions). The SPA assay mixture was incubated for 2 h at room temperature. Bound radioactivity was determined with a scintillation counter (Micro Beta “Trilux”, Wallac). Included were controls for total binding (no displacer added, Bo) and non-specific binding (NSB) by adding unlabelled recombinant human Eotaxin-1 (Biotrend, Cat #300-21) or a reference compound.
Determination of the affinity of a test compound was calculated by subtraction of the non-specific binding (NSB) from the total binding (Bo) or the binding in the presence of the test compound (B) at a given compound concentration. […] The Bo-NSB value was set to 0% inhibition.
% inhibition and Ki values are (human Eotaxin-1 at human CCR3-Rezeptor): […]

inhibition at 1 µM [%]	Ki [nM]	Structure (SMILES)
95	45	Cc1cc(CN2CCC(N3C(=O)CC[C@@H]3C(=O)Nc3cc(-n4cccn4)ccn3)CC2)ccc1Cl [Example 101]
100	19	Cc1cc(C)n(-c2ccnc(NC(=O)[C@H]3CCC(=O)N3C3CCN(Cc4ccc(Cl)c(C)c4)CC3)c2)n1 [Example 102]
54	1400	Cc1cc(CN2CCC(N3C(=O)CC[C@@H]3C(=O)N(C)c3ccccn3)CC2)ccc1Cl [Example 103]
24	2400	Cc1cc(CN2CCC(N3C(=O)CC[C@@H]3C(=O)N(C)c3ccccc3)CC2)ccc1Cl [Example 104]
99	5	Cc1cc(CN2CCC(N3C(=O)CC[C@@H]3C(=O)Nc3cc(C(=O)N(C)C)cc(C(=O)N(C)C)c3)CC2)ccc1Cl [Example 105]
100	3	CNC(=O)c1cc(NC(=O)[C@H]2CCC(=O)N2C2CCN(Cc3ccc(Cl)c(C)c3)CC2)cc(C(=O)N(C)C)c1 [Example 106]
99	13	Cc1cc(CN2CCC(N3C(=O)CC[C@@H]3C(=O)Nc3cc(C(N)=O)cc(C(=O)N(C)C)c3)CC2)ccc1Cl [Example 107]
98	4	COC(=O)c1cc(NC(=O)[C@H]2CCC(=O)N2C2CCN(Cc3ccc(Cl)c(C)c3)CC2)cc(C(=O)N(C)C)c1 [Example 108]
99	4	Cc1cc(NC(=O)[C@H]2CCC(=O)N2C2CCN(Cc3ccc(Cl)c(C)c3)CC2)cc(-c2nnnn2C)c1 [Example 114]
80	18	Cc1cc(C(=O)N(C)C)cc(NC(=O)[C@H]2CCC(=O)N2C2CCN(Cc3ccc(Cl)c(Cl)c3)CC2)n1 [Example 115]
93	47	Cc1cc(CN2CCC(N3C(=O)OC[C@H]3C(=O)Nc3cccc(C#N)c3)CC2)ccc1Cl [Example 116]
98	17	Cc1cc(CN2CCC(N3C(=O)OC[C@H]3C(=O)Nc3cc(C4CC4)nn3C)CC2)ccc1Cl [Example 117]
94	40	Cc1cc(CN2CCC(N3C(=O)OC[C@H]3C(=O)Nc3ccc4ncsc4c3)CC2)ccc1Cl [Example 118]
87	81	CNC(=O)c1cccc(NC(=O)[C@@H]2COC(=O)N2C2CCN(Cc3ccc(Cl)c(C)c3)CC2)c1 [Example 119]
95	35	Cc1cc(CN2CCC(N3C(=O)N(C)C[C@@H]3C(=O)Nc3cccc(-c4ccncc4)c3)CC2)ccc1Cl [Example 120]
98	21	Cc1cc(CN2CCC(N3C(=O)N(C)C[C@@H]3C(=O)Nc3cccc(-c4cscn4)c3)CC2)ccc1Cl [Example 121]
95	30	CNc1nc(-c2cccc(NC(=O)[C@H]3CN(C)C(=O)N3C3CCN(Cc4ccc(Cl)c(C)c4)CC3)c2)no1 [Example 122]
95	34	Cc1cc(CN2CCC(N3C(=O)N(C)C[C@@H]3C(=O)Nc3cccc(-c4cc[nH]n4)c3)CC2)ccc1Cl [Example 123]
93	41	Cc1cc(CN2CCC(N3C(=O)N(C)C[C@H]3C(=O)Nc3cc(C(C)(C)C)no3)CC2)ccc1Cl [Example 124]
97	58	Cc1cc(CN2CCC(N3C(=O)N(C)C[C@H]3C(=O)Nc3cccc(-c4cscn4)c3)CC2)ccc1Cl [Example 125]
89	71	Cc1cc(CN2CCC(N3C(=O)N(C)C[C@H]3C(=O)Nc3cccc(-c4nc[nH]n4)c3)CC2)ccc1Cl [Example 126]
90	81	CNC(=O)c1cccc(NC(=O)[C@@H]2CN(C)C(=O)N2C2CCN(Cc3ccc(Cl)c(C)c3)CC2)c1 [Example 127]

inhibition at 1 µM [%]	Ki [nM]	Structure (SMILES)
87	96	CNc1nc(-c2cccc(NC(=O)[C@@H]3CN(C)C(=O)N3C3CCN(Cc4ccc(Cl)c(C)c4)CC3)c2)no1 [Example 128]
70	334	Cc1cc(CN2CCC(N3C(=O)N(C)C[C@H]3C(=O)Nc3ccno3)CC2)ccc1Cl [Example 129]
91	77	Cc1cc(CN2CCC(N3C(=O)N(C)C[C@@H]3C(=O)Nc3cc(C4CC4)nn3C)CC2)ccc1Cl [Example 130]
89	85	CNC(=O)c1cccc(NC(=O)[C@H]2CN(C)C(=O)N2C2CCN(Cc3ccc(Cl)c(C)c3)CC2)c1 [Example 131]
102	1	Cc1cc(C(=O)N2CCCC2)cc(NC(=O)[C@H]2CCC(=O)N2C2CCN(Cc3ccc(Cl)c(C)c3)CC2)n1 [Example 132]
100	3	Cc1cc(CN2CCC(N3C(=O)CC[C@@H]3C(=O)Nc3cccc(C(=O)N(C)C(C)C)c3)CC2)ccc1Cl [Example 133]
101	3	Cc1cc(CN2CCC(N3C(=O)CC[C@@H]3C(=O)Nc3cccc(C(=O)NC4CCC4)c3)CC2)ccc1Cl [Example 134]
101	3	Cc1cc(C(=O)N(C)C)cc(NC(=O)[C@H]2CCC(=O)N2C2CCN(Cc3ccc(Cl)c(C)c3)CC2)n1 [Example 135]
100	4	Cc1cc(CN2CCC(N3C(=O)CC[C@@H]3C(=O)Nc3cccc(C(=O)NCC4CC4)c3)CC2)ccc1Cl [Example 136]
101	4	Cc1cc(CN2CCC(N3C(=O)CC[C@@H]3C(=O)Nc3cccc(C(=O)NCC(C)C)c3)CC2)ccc1Cl [Example 137]
101	4	CCC(C)N(C)C(=O)c1cccc(NC(=O)[C@H]2CCC(=O)N2C2CCN(Cc3ccc(Cl)c(C)c3)CC2)c1 (stereo partly shown) [Example 138]
101	5	Cc1cc(CN2CCC(N3C(=O)CC[C@@H]3C(=O)Nc3cc(C(=O)N4CCCC4)ccn3)CC2)ccc1Cl [Example 139]
98	6	Cc1cc(C(=O)N2CCOCC2)cc(NC(=O)[C@H]2CCC(=O)N2C2CCN(Cc3ccc(Cl)c(C)c3)CC2)n1 [Example 140]
94	6	Cc1cc(CN2CCC(N3C(=O)CC[C@@H]3C(=O)Nc3cccc(C(=O)N(C)C)c3)CC2)ccc1Cl [Example 141]
100	17	CNC(=O)c1cc(C)cc(NC(=O)[C@H]2CCC(=O)N2C2CCN(Cc3ccc(Cl)c(C)c3)CC2)c1 [Example 142]
99	7	CCC(C)NC(=O)c1cccc(NC(=O)[C@H]2CCC(=O)N2C2CCN(Cc3ccc(Cl)c(C)c3)CC2)c1 (stereo partly shown) [Example 143]
100	7	Cc1cc(CN2CCC(N3C(=O)CC[C@@H]3C(=O)Nc3cccc(C(=O)N(C)C4CC4)c3)CC2)ccc1Cl [Example 144]
99	8	Cc1cc(CN2CCC(N3C(=O)CC[C@@H]3C(=O)Nc3cccc(C(=O)NCC(F)F)c3)CC2)ccc1Cl [Example 145]
100	8	Cc1cc(CN2CCC(N3C(=O)CC[C@@H]3C(=O)Nc3cccc(C(=O)N4CCCC4)c3)CC2)ccc1Cl [Example 146]
99	8	Cc1cc(CN2CCC(N3C(=O)CC[C@@H]3C(=O)Nc3cc(C(=O)N(C)C)ccn3)CC2)ccc1Cl [Example 147]
99	10	Cc1cc(CN2CCC(N3C(=O)CC[C@@H]3C(=O)Nc3cccc(C(=O)NC4CC4)c3)CC2)ccc1Cl [Example 148]
99	10	Cc1cc(CN2CCC(N3C(=O)CC[C@@H]3C(=O)Nc3cccc(C(=O)N(C)Cc4ccco4)c3)CC2)ccc1Cl [Example 149]
